The source made the active and inactive calls. The rule behind the calls is not given here.
Legend:
HGC-27 = test: Antiproliferative activity against human HGC-27 cells assessed as cell growth inhibition measured after 4 days by CCK-8 assay; type: functional, cell-based; conditions: HGC-27, 96 h
[1] = target: T1, Protein cereblon/Bromodomain-containing protein 4 (Homo sapiens) (UniProt O60885+Q96SW2); test: PROTAC activity at CRBN/BRD4-S in human MV4-11 cells assessed as induction of protein degradation at 0.1 to 30 nM measured after 24 hrs by Western blot analysis; type: cell-based; conditions: dose 0.1-30 nM
T1 sequence (Q96SW2 whole entry, looked up, other chains not shown): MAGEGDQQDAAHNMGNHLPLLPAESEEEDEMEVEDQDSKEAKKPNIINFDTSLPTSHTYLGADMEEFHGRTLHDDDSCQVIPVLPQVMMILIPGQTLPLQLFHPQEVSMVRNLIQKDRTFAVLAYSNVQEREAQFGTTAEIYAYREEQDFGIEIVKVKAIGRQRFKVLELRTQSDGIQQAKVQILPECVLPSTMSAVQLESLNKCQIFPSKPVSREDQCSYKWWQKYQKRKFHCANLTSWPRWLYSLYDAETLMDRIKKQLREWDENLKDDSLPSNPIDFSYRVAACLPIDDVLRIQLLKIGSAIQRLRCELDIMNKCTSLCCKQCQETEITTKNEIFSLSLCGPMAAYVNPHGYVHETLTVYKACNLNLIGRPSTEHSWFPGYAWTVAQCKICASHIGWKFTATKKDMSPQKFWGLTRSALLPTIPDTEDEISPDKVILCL

[2] = target: T1, Protein cereblon/Bromodomain-containing protein 4 (Homo sapiens); test: PROTAC activity at CRBN/BRD4-S in human U-937 cells assessed as induction of protein degradation by Western blot analysis; type: cell-based
[3] = target: T1, Protein cereblon/Bromodomain-containing protein 4 (Homo sapiens); test: PROTAC activity at CRBN/BRD4-L in human MM1.S cells assessed as induction of protein degradation at 2 nM measured after 24 hrs by Western blot analysis; type: cell-based
MM1.S [4] = test: Induction of cell cycle arrest in human MM1.S cells assessed as accumulation of cells at G2 phase at 3 nM incubated for 24 hrs by flow cytometry analysis (reference value: 14.68%); type: functional
[5] = target: T2, Bromodomain-containing protein 3 (Homo sapiens, UniProt Q15059); test: Binding affinity to recombinant human BRD3 BD2 (306 to 417 residues) assessed as inhibition constant by fluorescence polarization binding assay
T2 sequence (Q15059 whole entry, the tested form may be a part): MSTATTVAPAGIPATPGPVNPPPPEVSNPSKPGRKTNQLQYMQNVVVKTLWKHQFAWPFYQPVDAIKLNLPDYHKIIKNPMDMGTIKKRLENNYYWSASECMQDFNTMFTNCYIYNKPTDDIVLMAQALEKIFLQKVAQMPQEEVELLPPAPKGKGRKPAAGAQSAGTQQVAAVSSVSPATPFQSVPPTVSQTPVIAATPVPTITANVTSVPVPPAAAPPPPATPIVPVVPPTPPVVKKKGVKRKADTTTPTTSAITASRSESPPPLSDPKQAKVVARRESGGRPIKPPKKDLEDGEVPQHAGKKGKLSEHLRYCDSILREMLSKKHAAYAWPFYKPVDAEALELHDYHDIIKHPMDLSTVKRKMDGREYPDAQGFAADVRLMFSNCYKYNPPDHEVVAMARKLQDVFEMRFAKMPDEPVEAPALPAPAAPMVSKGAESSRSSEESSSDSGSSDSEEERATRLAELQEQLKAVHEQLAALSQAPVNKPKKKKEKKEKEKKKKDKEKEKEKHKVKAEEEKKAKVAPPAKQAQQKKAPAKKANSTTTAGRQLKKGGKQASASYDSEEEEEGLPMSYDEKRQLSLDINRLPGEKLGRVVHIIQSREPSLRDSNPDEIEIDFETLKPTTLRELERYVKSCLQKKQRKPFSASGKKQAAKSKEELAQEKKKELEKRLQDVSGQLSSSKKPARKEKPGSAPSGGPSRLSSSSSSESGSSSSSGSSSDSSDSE

MM1.S [6] = test: Induction of cell cycle arrest in human MM1.S cells assessed as accumulation of cells at G1 phase at 300 nM incubated for 24 hrs by flow cytometry analysis (reference value: 56.32%); type: functional
MM1.S [7] = test: Induction of cell cycle arrest in human MM1.S cells assessed as accumulation of cells at S phase at 3 nM incubated for 24 hrs by flow cytometry analysis (reference value: 22.37%); type: functional
MM1.S [8] = test: Downregulation of BRD4 expression in human MM1.S cells by proteomic analysis; type: functional, cell-based
MM1.S [9] = test: Downregulation of BRD3 expression in human MM1.S cells by proteomic analysis; type: functional, cell-based
[10] = target: T1, Protein cereblon/Bromodomain-containing protein 4 (Homo sapiens); test: PROTAC activity at CRBN/BRD4-L in human MCF7 cells assessed as induction of protein degradation measured after 24 hrs by Western blot analysis; type: cell-based; conditions: dose 1-300 nM
MV4-11 = test: Antiproliferative activity against human MV4-11 cells assessed as cell growth inhibition measured after 3 days by CellTitre-Glo assay; type: functional, cell-based; conditions: MV4-11, 72 h
[11] = target: T2, Bromodomain-containing protein 3; test: Binding affinity to recombinant human BRD3 BD1 (24 to 144 residues) assessed as inhibition constant by fluorescence polarization binding assay
[12] = target: T1, Protein cereblon/Bromodomain-containing protein 4 (Homo sapiens); test: PROTAC activity at CRBN/BRD4-L in human MM1.S cells assessed as induction of protein degradation at 30 nM by Western blot analysis; type: cell-based; conditions: TDE = time-dependent effect
MM1.S [13] = test: Induction of cell cycle arrest in human MM1.S cells assessed as accumulation of cells at G2 phase at 10 nM incubated for 24 hrs by flow cytometry analysis (reference value: 14.68%); type: functional
MM1.S [14] = test: Induction of cell cycle arrest in human MM1.S cells assessed as accumulation of cells at G1 phase at 10 nM incubated for 24 hrs by flow cytometry analysis (reference value: 56.32%); type: functional
[15] = target: T1, Protein cereblon/Bromodomain-containing protein 4 (Homo sapiens); test: PROTAC activity at CRBN/BRD4-S in human HepG2 cells assessed as induction of protein degradation at 10 to 3000 nM measured after 24 hrs by Western blot analysis; type: cell-based; conditions: dose 10-3000 nM
[16] = target: T3, Protein cereblon/Bromodomain-containing protein 2 (Homo sapiens) (UniProt P25440+Q96SW2); test: PROTAC activity at CRBN/BRD2 in human HepG2 cells assessed as induction of protein degradation at 10 to 3000 nM measured after 24 hrs by Western blot analysis; type: cell-based; conditions: dose 10-3000 nM
T3 sequence (P25440 whole entry, looked up): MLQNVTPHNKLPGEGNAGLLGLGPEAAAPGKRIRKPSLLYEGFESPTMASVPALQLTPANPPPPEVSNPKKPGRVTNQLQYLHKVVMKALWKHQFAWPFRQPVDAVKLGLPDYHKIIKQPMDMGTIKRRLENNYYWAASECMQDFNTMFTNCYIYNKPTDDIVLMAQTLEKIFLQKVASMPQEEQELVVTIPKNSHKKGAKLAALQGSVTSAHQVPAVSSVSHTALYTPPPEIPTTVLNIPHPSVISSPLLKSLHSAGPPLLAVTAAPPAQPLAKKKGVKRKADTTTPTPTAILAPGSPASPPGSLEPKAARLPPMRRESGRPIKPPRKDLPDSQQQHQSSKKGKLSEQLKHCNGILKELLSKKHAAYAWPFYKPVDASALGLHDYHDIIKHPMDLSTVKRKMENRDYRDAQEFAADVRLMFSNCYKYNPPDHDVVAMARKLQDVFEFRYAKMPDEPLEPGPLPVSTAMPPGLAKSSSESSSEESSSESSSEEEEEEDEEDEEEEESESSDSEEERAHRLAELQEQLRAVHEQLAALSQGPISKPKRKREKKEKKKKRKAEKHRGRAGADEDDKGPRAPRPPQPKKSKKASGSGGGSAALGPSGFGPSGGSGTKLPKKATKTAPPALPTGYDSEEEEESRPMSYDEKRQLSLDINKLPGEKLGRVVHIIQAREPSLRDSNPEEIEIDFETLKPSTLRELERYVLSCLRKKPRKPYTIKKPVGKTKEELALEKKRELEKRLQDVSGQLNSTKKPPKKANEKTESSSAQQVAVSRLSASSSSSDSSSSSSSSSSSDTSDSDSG
T3 sequence (Q96SW2 whole entry, looked up): as the sequence (Q96SW2 whole entry, looked up, other chains not shown) above

MM1.S [17] = test: Induction of cell cycle arrest in human MM1.S cells assessed as accumulation of cells at S phase at 10 nM incubated for 24 hrs by flow cytometry analysis (reference value: 22.37%); type: functional
[18] = target: T4, Protein cereblon/Bromodomain-containing protein 3 (Homo sapiens) (UniProt Q15059+Q96SW2); test: PROTAC activity at CRBN/BRD3 in human MM1.S cells assessed as induction of protein degradation measured after 24 hrs by Western blot analysis; type: cell-based
T4 sequence (Q15059 2-726 limits assumed): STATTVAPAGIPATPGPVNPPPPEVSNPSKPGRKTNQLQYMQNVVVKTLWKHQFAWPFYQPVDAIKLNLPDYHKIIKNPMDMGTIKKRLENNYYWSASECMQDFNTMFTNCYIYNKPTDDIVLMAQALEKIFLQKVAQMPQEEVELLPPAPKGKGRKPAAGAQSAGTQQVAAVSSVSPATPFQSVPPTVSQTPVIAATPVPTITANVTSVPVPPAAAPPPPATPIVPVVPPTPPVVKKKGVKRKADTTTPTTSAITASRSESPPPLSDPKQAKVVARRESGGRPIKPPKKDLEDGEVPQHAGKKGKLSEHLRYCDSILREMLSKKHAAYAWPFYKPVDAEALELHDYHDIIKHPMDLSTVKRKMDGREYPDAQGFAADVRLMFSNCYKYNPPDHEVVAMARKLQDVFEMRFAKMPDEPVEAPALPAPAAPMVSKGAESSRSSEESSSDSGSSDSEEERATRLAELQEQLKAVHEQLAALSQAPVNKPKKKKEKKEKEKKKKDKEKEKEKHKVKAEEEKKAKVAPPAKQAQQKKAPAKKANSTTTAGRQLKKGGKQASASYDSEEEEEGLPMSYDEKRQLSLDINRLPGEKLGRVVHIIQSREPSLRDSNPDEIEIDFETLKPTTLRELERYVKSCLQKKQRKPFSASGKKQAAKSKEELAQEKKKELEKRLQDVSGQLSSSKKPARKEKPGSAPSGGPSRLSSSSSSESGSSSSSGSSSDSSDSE
T4 sequence (Q96SW2 whole entry partner): as the sequence (Q96SW2 whole entry, looked up, other chains not shown) above

[19] = target: T4, Protein cereblon/Bromodomain-containing protein 3 (Homo sapiens); test: PROTAC activity at CRBN/BRD3 in human MM1.S cells assessed as induction of protein degradation at 2 nM measured after 24 hrs by Western blot analysis; type: cell-based
[20] = target: T1, Protein cereblon/Bromodomain-containing protein 4 (Homo sapiens); test: PROTAC activity at CRBN/BRD4-L in human MCF7 cells assessed as induction of protein degradation at 30 nM by Western blot analysis; type: cell-based; conditions: time 1-3 hrs, TDE = time-dependent effect
[21] = target: T1, Protein cereblon/Bromodomain-containing protein 4 (Homo sapiens); test: PROTAC activity at CRBN/BRD4-L in human HGC-27 cells assessed as induction of protein degradation measured after 24 hrs by Western blot analysis; type: cell-based; conditions: dose 0.1-30 nM
[22] = target: T1, Protein cereblon/Bromodomain-containing protein 4 (Homo sapiens); test: PROTAC activity at CRBN/BRD4-S in human MCF7 cells assessed as induction of protein degradation at 1 to 300 nM measured after 24 hrs by Western blot analysis; type: cell-based; conditions: dose 1-300 nM
MM1.S [23] = test: Induction of cell cycle arrest in human MM1.S cells assessed as accumulation of cells at G1 phase at 100 nM incubated for 24 hrs by flow cytometry analysis (reference value: 56.32%); type: functional
MM1.S [24] = test: Downregulation of p21 protein expression in human MM1.S cells at 0.1 to 30 nM measured after 24 hrs by Western blot analysis; type: functional, cell-based; conditions: dose 0.1-30 nM
[25] = target: T1, Protein cereblon/Bromodomain-containing protein 4 (Homo sapiens); test: PROTAC activity at CRBN/BRD4-L in human MM1.S cells assessed as induction of protein degradation at 30 nM measured after 3 to 6 hrs by Western blot analysis; type: cell-based; conditions: time 3-6 hrs
[26] = target: T3, Protein cereblon/Bromodomain-containing protein 2 (Homo sapiens); test: PROTAC activity at CRBN/BRD2 in human MCF7 cells assessed as induction of protein degradation at 1 to 300 nM measured after 24 hrs by Western blot analysis; type: cell-based; conditions: dose 1-300 nM
[27] = target: T1, Protein cereblon/Bromodomain-containing protein 4 (Homo sapiens); test: PROTAC activity at CRBN/BRD4-L in human HeLa cells assessed as induction of protein degradation measured after 24 hrs by Western blot analysis; type: cell-based; conditions: dose 1-300 nM
MM1.S [28] = test: Induction of cell cycle arrest in human MM1.S cells assessed as accumulation of cells at S phase at 1 nM incubated for 24 hrs by flow cytometry analysis (reference value: 22.37%); type: functional
[29] = target: T4, Protein cereblon/Bromodomain-containing protein 3 (Homo sapiens); test: PROTAC activity at CRBN/BRD3 in human MM1.S cells assessed as induction of protein degradation at 30 nM pretreated with (6R)-N-(4-chlorophenyl)-1-methyl-8-(1-methyl-1H-pyrazol-4-yl)-5,6-dihydro-4H-benzo[f][1,2,4]triazolo[4,3-a]azepin-6-amine for 2 hrs followed by compound addition and measured after 4 hrs by Western blot analysis; type: cell-based
MM1.S [30] = test: Induction of cell cycle arrest in human MM1.S cells assessed as accumulation of cells at G1 phase at 3 nM incubated for 24 hrs by flow cytometry analysis (reference value: 56.32%); type: functional
[31] = target: T1, Protein cereblon/Bromodomain-containing protein 4 (Homo sapiens); test: PROTAC activity at CRBN/BRD4-L in human MM1.S cells assessed as induction of protein degradation at 30 nM pretreated with 0.2 to 10 uM MG132 for 2 hrs followed by compound addition and measured after 4 hrs by Western blot analysis; type: cell-based
[32] = target: T1, Protein cereblon/Bromodomain-containing protein 4 (Homo sapiens); test: PROTAC activity at CRBN/BRD4-L in human HepG2 cells assessed as induction of protein degradation measured after 24 hrs by Western blot analysis; type: cell-based; conditions: dose 10-3000 nM

Activity [1]: Active | Activity [2]: Dose-Dependent Effect | Activity [3]: Active | Ki [5]: 2.45 nM | Activity [10]: Dose-Dependent Effect | IC50 (MV4-11): 6.31 nM | Ki [11]: 12 nM | Activity [12]: Tde | Activity [15]: inactive | Activity [16]: inactive | Activity [18]: Dose-Dependent Effect | Activity [19]: Active | Activity [20]: Tde | Activity [21]: Dose-Dependent Effect | Activity [22]: inactive | Activity [25]: Active | Activity [26]: inactive | Activity [27]: Dose-Dependent Effect | Activity [29]: inactive | Activity [31]: inactive | Activity [32]: Dose-Dependent Effect
Compound: Cc1nnc2n1-c1ccc(-c3ccc(CNCCCCc4cccc5c4CN(C4CCC(=O)NC4=O)C5=O)cc3)cc1C(Nc1ccc(Cl)cc1)CC2 (centres undefined)
IC50 (HGC-27): 2350 nM | Activity (MM1.S [4]): 20.58% | Activity (MM1.S [6]): 68.85% | Activity (MM1.S [7]): 17.72% | Activity (MM1.S [8]): Active | Activity (MM1.S [9]): Active | Activity (MM1.S [13]): 17.82% | Activity (MM1.S [14]): 63.9% | Activity (MM1.S [17]): 14.97% | Activity (MM1.S [23]): 65.67% | Activity (MM1.S [24]): Active | Activity (MM1.S [28]): 21.35% | Activity (MM1.S [30]): 62.34%

Source: ChEMBL document CHEMBL5321219, “Selective degradation of cellular BRD3 and BRD4-L promoted by PROTAC molecules in six cancer cell lines” (Eur J Med Chem, 2023)
